Test results from the supplement of paper PMC4977894.
± gives the standard deviation of the averaged measurements.

Key:
[1] = test system: Homo sapiens (human subject panel, olfactory perception); test: perceived odor intensity rating (rating 0-100); higher = stronger perceived smell
How it was run: (§1)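 Across ten visits of 100 stimuli, 55 healthy human subjects aged 18–50 sniffed 1 mL of each molecule in paraffin oil in randomized order, at both high and low concentrations. The six lowest performers were excluded. Whenever a subject reported smelling a stimulus, they rated it on a computerized slider that started at 50 and had to be moved, and positions were converted to a 0–100 scale. Each familiarity, intensity and pleasantness figure is a mean across subjects.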

[2] = test system: Homo sapiens (human subject panel, olfactory perception); test: perceived odor pleasantness rating (rating 0-100); higher = more pleasant
How it was run: as §1

[3] = test system: Homo sapiens (human subject panel, olfactory perception); test: perceived odor familiarity rating (rating 0-100); higher = more familiar
How it was run: as §1

[4] = odor dilution in paraffin oil: 1/10
[5] = odor dilution in paraffin oil: 1/1,000
[6] = odor dilution in paraffin oil: 1/100,000
[7] = odor dilution in paraffin oil: 1/10,000,000

Row | Compound | perceived odor intensity rating [1, 4] | perceived odor intensity rating [1, 5] | perceived odor pleasantness rating [2, 4] | perceived odor pleasantness rating [2, 5] | perceived odor familiarity rating [3, 4] | perceived odor familiarity rating [3, 5] | perceived odor intensity rating [1, 6] | perceived odor pleasantness rating [2, 6] | perceived odor familiarity rating [3, 6] | perceived odor intensity rating [1, 7] | perceived odor pleasantness rating [2, 7] | perceived odor familiarity rating [3, 7]
1 | O=C(O)[C@@H]1CCCN1 [L-Proline] | 81.4 ± 20 | 60.2 ± 31 | 27.9 ± 28 | 22.8 ± 24 | 45.3 ± 30 | 45.8 ± 35 |  |  |  |  |  | 
2 | CCCOC(C)=O [propyl acetate] |  | 43.8 ± 36 |  | 43.5 ± 24 |  | 55.1 ± 30 | 24.5 ± 26 | 49 ± 20 | 41.6 ± 28 |  |  | 
3 | CCCCCCCCCC(=O)O [decanoic acid] | 75.9 ± 22 | 50.2 ± 30 | 28.3 ± 26 | 28.7 ± 19 | 47.4 ± 34 | 40.6 ± 29 |  |  |  |  |  | 
4 | CC(=O)OCCC(C)C [isopentyl acetate] |  | 58.3 ± 31 |  | 59.3 ± 25 |  | 55.5 ± 32 | 45.9 ± 30 | 65.2 ± 23 | 51 ± 35 |  |  | 
5 | O=C(OCc1ccccc1)c1ccccc1 [Benzyl benzoate] | 53.3 ± 30 | 19.8 ± 24 | 46.9 ± 24 | 48.6 ± 21 | 38.5 ± 26 | 42.4 ± 31 |  |  |  |  |  | 
6 | CC(=O)OCC(C)C [isobutyl acetate] |  | 75.9 ± 22 |  | 56 ± 28 |  | 72.1 ± 24 | 33.5 ± 30 | 50 ± 22 | 39.2 ± 27 |  |  | 
7 | CCCC(=O)O [butyric acid] |  | 86.8 ± 13 |  | 21.1 ± 27 |  | 53.1 ± 31 | 76.8 ± 23 | 16 ± 18 | 50.2 ± 34 |  |  | 
8 | CCCCCCCCCC1CCCC(=O)O1 (stereo unspecified) [delta-Tetradecalactone (replicate)] |  | 33 ± 30 |  | 41.9 ± 20 |  | 37.7 ± 24 | 13.9 ± 20 | 51.2 ± 20 | 26 ± 28 |  |  | 
9 | C=CCCCCO [5-Hexen-1-ol] |  | 62.2 ± 32 |  | 48 ± 28 |  | 43.7 ± 33 | 26 ± 25 | 49.2 ± 23 | 42.6 ± 30 |  |  | 
10 | CCCCN [Butylamine] |  |  |  |  |  |  | 16.3 ± 22 | 50.8 ± 27 | 36 ± 29 | 21.8 ± 24 | 44.4 ± 25 | 32.7 ± 27
11 | CC1CCC(=O)CC1 [4-Methylcyclohexanone] |  | 60.9 ± 31 |  | 36.9 ± 25 |  | 46 ± 32 | 32.5 ± 28 | 64.6 ± 20 | 49.2 ± 28 |  |  | 
12 | CCCSCCC [propyl sulfide] |  |  |  |  |  |  | 28.1 ± 31 | 44.5 ± 28 | 29.4 ± 28 | 11.6 ± 12 | 40.7 ± 25 | 34.7 ± 38
13 | CCC(=O)OCc1ccccc1 [Benzyl propionate] |  | 53 ± 30 |  | 67.2 ± 23 |  | 50.7 ± 32 | 30 ± 32 | 44 ± 28 | 34.5 ± 24 |  |  | 
14 | CCCOC(=O)CC [Propyl propionate] |  | 72.1 ± 21 |  | 44.4 ± 26 |  | 50.4 ± 32 | 22.9 ± 25 | 48.7 ± 25 | 33.7 ± 27 |  |  | 
15 | CCCCCC(=O)OC [methyl caproate] |  | 68.4 ± 26 |  | 56.2 ± 29 |  | 56.4 ± 31 | 30.5 ± 29 | 51.8 ± 22 | 36.3 ± 31 |  |  | 
16 | CCCO [propanol] |  | 28.7 ± 28 |  | 49.7 ± 20 |  | 30.3 ± 21 | 26.8 ± 28 | 50.1 ± 21 | 48.1 ± 32 |  |  | 
17 | C=CCOC(=O)/C=C/c1ccccc1 [Allyl cinnamate] |  | 57 ± 32 |  | 52.4 ± 28 |  | 40.5 ± 28 | 46.8 ± 30 | 52.4 ± 24 | 44 ± 27 |  |  | 
18 | CCOC(=O)CC(O)C(=O)OCC (stereo unspecified) [Diethyl malate] |  | 24.6 ± 25 |  | 41.4 ± 24 |  | 35.8 ± 28 | 12.6 ± 17 | 55.2 ± 19 | 22.1 ± 26 |  |  | 

Row | Compound | perceived odor intensity rating [1, 4] | perceived odor intensity rating [1, 5] | perceived odor pleasantness rating [2, 4] | perceived odor pleasantness rating [2, 5] | perceived odor familiarity rating [3, 4] | perceived odor familiarity rating [3, 5] | perceived odor intensity rating [1, 6] | perceived odor pleasantness rating [2, 6] | perceived odor familiarity rating [3, 6] | perceived odor intensity rating [1, 7] | perceived odor pleasantness rating [2, 7] | perceived odor familiarity rating [3, 7]
19 | CC(=O)OC(C)(C)Cc1ccccc1 [alpha,alpha-Dimethylphenethyl acetate] | 79 ± 17 | 36.6 ± 30 | 51.9 ± 31 | 52.5 ± 21 | 48.8 ± 32 | 40.3 ± 30 |  |  |  |  |  | 
20 | CC(=O)C(=O)O [Pyruvic Acid] |  | 70.6 ± 23 |  | 39.1 ± 28 |  | 52.1 ± 29 | 37.7 ± 32 | 53.4 ± 24 | 44.5 ± 29 |  |  | 
21 | Cc1nc(C)c(C)s1 [2,4,5-Trimethylthiazole] |  |  |  |  |  |  | 67.9 ± 26 | 33.8 ± 26 | 48.4 ± 31 | 35.2 ± 31 | 44.2 ± 27 | 46.4 ± 31
22 | O=C(O)CC1CCCCC1 [Cyclohexaneacetic acid] |  | 69.9 ± 22 |  | 28.8 ± 22 |  | 46.9 ± 28 | 29.4 ± 30 | 37.6 ± 23 | 32.8 ± 25 |  |  | 
23 | CC(=O)c1nccs1 [2-Acetylthiazole] |  | 80 ± 20 |  | 46.3 ± 31 |  | 69.3 ± 28 | 76.3 ± 17 | 47.7 ± 30 | 58.3 ± 31 |  |  | 
24 | c1ccc(CSSCc2ccccc2)cc1 [Benzyl disulfide] | 81.2 ± 20 | 63.6 ± 27 | 24.2 ± 25 | 26.8 ± 22 | 48.2 ± 34 | 49.1 ± 32 |  |  |  |  |  | 
25 | O=C(O)C(O)C(O)C(=O)O (racemic) [DL-Tartaric acid] | 30.6 ± 30 | 26.4 ± 30 | 48.3 ± 20 | 52.1 ± 19 | 40.5 ± 25 | 26.4 ± 28 |  |  |  |  |  | 
26 | C=C(C)C1CC=C(C)C(OC(C)=O)C1 (stereo unspecified) [carvyl acetate] |  | 75 ± 25 |  | 27.2 ± 22 |  | 43.5 ± 32 | 38.6 ± 33 | 44.1 ± 23 | 37.2 ± 30 |  |  | 
27 | CC(C)Cc1nccs1 [2-Isobutylthiazole] |  |  |  |  |  |  | 61.3 ± 26 | 41.4 ± 26 | 46.3 ± 29 | 31.2 ± 31 | 46.4 ± 23 | 32.4 ± 31
28 | O=C(/C=C/C=C/c1ccc2c(c1)OCO2)N1CCCCC1 [Piperine] | 54.1 ± 29 | 19.4 ± 27 | 51.5 ± 26 | 44.9 ± 29 | 49.2 ± 31 | 20.9 ± 26 |  |  |  |  |  | 
29 | CCCCCCO [hexanol] |  | 61.5 ± 29 |  | 58.2 ± 27 |  | 58.7 ± 28 | 26 ± 27 | 49.4 ± 26 | 42.7 ± 27 |  |  | 
30 | CCCCC/C=C\C/C=C\CCCCCCCC(=O)O [Linoleic acid (replicate)] | 91.6 ± 11 | 66.6 ± 26 | 20.4 ± 24 | 31.7 ± 20 | 46.6 ± 35 | 53.2 ± 30 |  |  |  |  |  | 
31 | Cc1cscn1 [4-Methylthiazole] |  | 60.7 ± 30 |  | 29.4 ± 27 |  | 46.8 ± 31 | 57.3 ± 28 | 32.7 ± 20 | 44.4 ± 29 |  |  | 
32 | CCCCOC(=O)CC(CC(=O)OCCCC)(OC(C)=O)C(=O)OCCCC [Tributyl-2-Acetylcitrate] | 41.4 ± 30 | 6.93 ± 11 | 43.2 ± 22 | 51.5 ± 23 | 35.9 ± 28 | 37.7 ± 28 |  |  |  |  |  | 
33 | Cc1nc(C)c(C)nc1C [2,3,5,6-Tetramethylpyrazine] | 79.1 ± 18 | 25.8 ± 25 | 28.7 ± 23 | 49.4 ± 22 | 41.3 ± 31 | 35.7 ± 28 |  |  |  |  |  | 
34 | CCCCOC(=O)Cc1ccccc1 [Butyl phenylacetate] |  | 53.1 ± 31 |  | 47.2 ± 28 |  | 51.6 ± 30 | 24.8 ± 25 | 45.9 ± 22 | 41.3 ± 32 |  |  | 
35 | CCCCCCCCCCC=O [undecanal] |  | 68.2 ± 28 |  | 36.2 ± 26 |  | 47.9 ± 32 | 20.4 ± 26 | 50 ± 21 | 28.2 ± 25 |  |  | 
36 | CCCCCCCCOC(=O)C(C)C [Octyl isobutyrate] |  | 29.9 ± 26 |  | 55.8 ± 21 |  | 38.9 ± 27 | 17.7 ± 20 | 53.4 ± 20 | 36 ± 31 |  |  | 
